According to PMC4172587 (2014):

Key:
[1] = tested on: poly(dA).poly(dT) (DNA, polymer) A/T; assay: fluorescence titration, Scatchard, McGhee-von Hippel; conditions: Na+ (citrate-phosphate 15 mM); 15 mM CP buffer pH 6.8, 25 °C; cooperative, intrinsic constant, ω 20; DNA as nucleotide phosphate; per base
[2] = tested on: poly(dG-dC).poly(dG-dC) (DNA, polymer) GC; assay: as above; conditions: Na+ (citrate-phosphate 15 mM); 15 mM CP buffer pH 6.8, 25 °C; non cooperative; DNA as nucleotide phosphate; per base
[3] = tested on: poly(dG-dC).poly(dG-dC) (DNA, polymer) GC; assay: ITC, polynucleotide titrated into harmalol; conditions: 15 mM Na+; CP buffer pH 6.8, 25 °C; single-site fit; 20 µM harmalol; per base
[4] = tested on: poly(dG-dC).poly(dG-dC) (DNA, polymer) GC; assay: absorbance titration, Scatchard, McGhee-von Hippel; conditions: Na+ (citrate-phosphate 15 mM); 15 mM CP buffer pH 6.8, 25 °C; non cooperative; DNA as nucleotide phosphate; per base
[5] = tested on: poly(dG).poly(dC) (DNA, polymer) G/C; assay: absorbance titration, Scatchard, McGhee-von Hippel; conditions: Na+ (citrate-phosphate 15 mM); 15 mM CP buffer pH 6.8, 25 °C; cooperative, intrinsic Ki 0.002±0.001 × 10^6, ω 84; DNA as nucleotide phosphate; per base
[6] = tested on: poly(dA-dT).poly(dA-dT) (DNA, polymer) AT; assay: UV melting, 260 nm; conditions: Na+ (citrate-phosphate 15 mM); 15 mM CP buffer pH 6.8; 20 µM polymer; harmalol at saturation (rmax); per base
[7] = tested on: poly(dG-dC).poly(dG-dC) (DNA, polymer) GC; assay: competition dialysis; conditions: Na+ (citrate-phosphate 15 mM); apparent; 15 mM CP buffer pH 6.8, 25 °C; 150 µM nucleotide phosphate, 1 µM harmalol; per base
[8] = tested on: poly(dA-dT).poly(dA-dT) (DNA, polymer) AT; assay: absorbance titration, Scatchard, McGhee-von Hippel; conditions: Na+ (citrate-phosphate 15 mM); 15 mM CP buffer pH 6.8, 25 °C; non cooperative; DNA as nucleotide phosphate; per base
[9] = tested on: poly(dG).poly(dC) (DNA, polymer) G/C; assay: ITC, polynucleotide titrated into harmalol; conditions: 15 mM Na+; CP buffer pH 6.8, 25 °C; single-site fit; 20 µM harmalol; per base
[10] = tested on: poly(dG).poly(dC) (DNA, polymer) G/C; assay: fluorescence titration, Scatchard, McGhee-von Hippel; conditions: Na+ (citrate-phosphate 15 mM); 15 mM CP buffer pH 6.8, 25 °C; cooperative, intrinsic constant, ω 75; DNA as nucleotide phosphate; per base
[11] = tested on: poly(dA).poly(dT) (DNA, polymer) A/T; assay: UV melting, 260 nm; conditions: Na+ (citrate-phosphate 15 mM); 15 mM CP buffer pH 6.8; 20 µM polymer; harmalol at saturation (rmax); per base
[12] = tested on: poly(dA-dT).poly(dA-dT) (DNA, polymer) AT; assay: ITC, polynucleotide titrated into harmalol; conditions: 15 mM Na+; CP buffer pH 6.8, 25 °C; single-site fit; text b28 prints 0.40±0.02×10^5, Table 3 agrees with 0.44×10^6; per base
[13] = tested on: poly(dA).poly(dT) (DNA, polymer) A/T; assay: competition dialysis; conditions: Na+ (citrate-phosphate 15 mM); apparent; 15 mM CP buffer pH 6.8, 25 °C; 150 µM nucleotide phosphate, 1 µM harmalol; per base
[14] = tested on: poly(dG).poly(dC) (DNA, polymer) G/C; assay: UV melting, 260 nm; conditions: Na+ (citrate-phosphate 15 mM); 15 mM CP buffer pH 6.8; 20 µM polymer; harmalol at saturation (rmax); per base
[15] = tested on: poly(dG).poly(dC) (DNA, polymer) G/C; assay: competition dialysis; conditions: Na+ (citrate-phosphate 15 mM); apparent; 15 mM CP buffer pH 6.8, 25 °C; 150 µM nucleotide phosphate, 1 µM harmalol; per base
[16] = tested on: poly(dA).poly(dT) (DNA, polymer) A/T; assay: absorbance titration, Scatchard, McGhee-von Hippel; conditions: Na+ (citrate-phosphate 15 mM); 15 mM CP buffer pH 6.8, 25 °C; cooperative, intrinsic Ki 0.02±0.01 × 10^6, ω 14.0; DNA as nucleotide phosphate; per base
[17] = tested on: poly(dA-dT).poly(dA-dT) (DNA, polymer) AT; assay: competition dialysis; conditions: Na+ (citrate-phosphate 15 mM); apparent; 15 mM CP buffer pH 6.8, 25 °C; 150 µM nucleotide phosphate, 1 µM harmalol; per base
[18] = tested on: poly(dA-dT).poly(dA-dT) (DNA, polymer) AT; assay: fluorescence titration, Scatchard, McGhee-von Hippel; conditions: Na+ (citrate-phosphate 15 mM); 15 mM CP buffer pH 6.8, 25 °C; non cooperative; DNA as nucleotide phosphate; per base
[19] = tested on: poly(dA).poly(dT) (DNA, polymer) A/T; assay: ITC, polynucleotide titrated into harmalol; conditions: 15 mM Na+; CP buffer pH 6.8, 25 °C; single-site fit; 20 µM harmalol; per base

Kf [1]: 0.015±0.001 × 10^6 M^-1 | Kf [2]: 4.60±0.07 × 10^6 M^-1 | Kb [3]: 3.86±0.07 × 10^6 M^-1 | Ki [4]: 4.20±0.05 × 10^6 M^-1 | Kiω [5]: 0.18±0.01 × 10^6 M^-1 | ΔTm [6]: 8 °C | Kapp [7]: 13.10±0.07 × 10^5 M^-1 | Ki [8]: 0.43±0.03 × 10^6 M^-1 | Kb [9]: 0.22±0.03 × 10^6 M^-1 | Kf [10]: 0.002±0.001 × 10^6 M^-1 | ΔTm [11]: 6 °C | Kb [12]: 0.44±0.02 × 10^6 M^-1 | Kapp [13]: 3.39±0.02 × 10^5 M^-1 | ΔTm [14]: 6 °C | Kapp [15]: 2.19±0.01 × 10^5 M^-1 | Kiω [16]: 0.28±0.01 × 10^6 M^-1 | Kapp [17]: 4.56±0.04 × 10^5 M^-1 | Kf [18]: 0.45±0.04 × 10^6 M^-1 | Kb [19]: 0.30±0.02 × 10^6 M^-1
Compound: CC1=NCCc2c1[nH]c1cc(O)ccc21
